Among the data in ChEMBL document CHEMBL5465560, “Selectivity Literature for EUbOPEN Chemogenomic Library” (2024) are % of control, IC50 and % of inhibition values, retold here.

Test [1] relates to Tyrosine-protein kinase ABL1 (Homo sapiens), P00519 [H396P]. Kind of test: Selectivity interaction (KinomeScan (DiscoverX)) EUB0000655a ABL1. To be noted: at 10 µM.
In test [2] the target is MAP kinase-interacting serine/threonine-protein kinase 2 (Homo sapiens, UniProt Q9HBH9). The test can be described thus: Selectivity interaction (Kinase panel (33PanQinase(R) Activity Assay)) EUB0000877a MKNK2.
Chain of MAP kinase-interacting serine/threonine-protein kinase 2 (Q9HBH9 whole entry): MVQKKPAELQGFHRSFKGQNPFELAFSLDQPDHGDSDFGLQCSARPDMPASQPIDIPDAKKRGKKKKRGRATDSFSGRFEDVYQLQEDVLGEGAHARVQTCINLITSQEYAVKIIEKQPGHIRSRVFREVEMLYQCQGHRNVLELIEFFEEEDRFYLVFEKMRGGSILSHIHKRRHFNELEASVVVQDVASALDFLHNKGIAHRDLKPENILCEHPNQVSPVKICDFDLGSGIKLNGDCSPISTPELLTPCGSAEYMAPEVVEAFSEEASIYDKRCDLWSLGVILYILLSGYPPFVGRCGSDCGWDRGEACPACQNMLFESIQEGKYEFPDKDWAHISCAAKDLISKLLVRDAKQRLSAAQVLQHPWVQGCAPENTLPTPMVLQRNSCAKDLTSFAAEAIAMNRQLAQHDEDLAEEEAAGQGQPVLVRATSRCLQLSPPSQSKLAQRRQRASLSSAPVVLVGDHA
The target of test [3] is Tyrosine-protein kinase SYK (Homo sapiens, UniProt P43405). Kind of test: Selectivity interaction (ActivX KiNativ screen (kinase selectivity in THP-1 cell lysates)) EUB0000639a SYK. It is filed as subcellular. To be noted: lysate, at 0.2 µM.
Test [4] addresses Serine/threonine-protein kinase 16 (Homo sapiens, UniProt O75716). Kind of test: Selectivity interaction (ActivX KiNativ screen (kinase selectivity in THP-1 cell lysates)) EUB0000639a STK16. It counts as subcellular. To be noted: lysate, at 0.01 µM.
In test [5] the target is Cyclin-dependent kinase 5 (Homo sapiens, UniProt Q00535). The test can be described thus: Selectivity interaction (ActivX KiNativ screen (kinase selectivity in THP-1 cell lysates)) EUB0000639a CDK5. It counts as subcellular. Conditions: lysate, at 1 µM.
Chain of Cyclin-dependent kinase 5 (Q00535 whole entry, looked up): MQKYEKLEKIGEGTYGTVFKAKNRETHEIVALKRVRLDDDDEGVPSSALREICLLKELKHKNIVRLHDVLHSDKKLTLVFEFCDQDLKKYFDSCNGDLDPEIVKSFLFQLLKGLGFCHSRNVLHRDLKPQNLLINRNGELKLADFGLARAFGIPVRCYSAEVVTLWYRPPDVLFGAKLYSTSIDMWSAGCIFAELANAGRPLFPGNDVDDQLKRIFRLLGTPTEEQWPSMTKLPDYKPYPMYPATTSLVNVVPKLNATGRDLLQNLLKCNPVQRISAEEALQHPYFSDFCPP
Test [6] deals with Misshapen-like kinase 1 (Homo sapiens, UniProt Q8N4C8). The test can be described thus: Selectivity interaction (ActivX KiNativ screen (kinase selectivity in THP-1 cell lysates)) EUB0000639a MINK1. It counts as subcellular. To be noted: lysate.
Chain of Misshapen-like kinase 1 (Q8N4C8 whole entry, looked up): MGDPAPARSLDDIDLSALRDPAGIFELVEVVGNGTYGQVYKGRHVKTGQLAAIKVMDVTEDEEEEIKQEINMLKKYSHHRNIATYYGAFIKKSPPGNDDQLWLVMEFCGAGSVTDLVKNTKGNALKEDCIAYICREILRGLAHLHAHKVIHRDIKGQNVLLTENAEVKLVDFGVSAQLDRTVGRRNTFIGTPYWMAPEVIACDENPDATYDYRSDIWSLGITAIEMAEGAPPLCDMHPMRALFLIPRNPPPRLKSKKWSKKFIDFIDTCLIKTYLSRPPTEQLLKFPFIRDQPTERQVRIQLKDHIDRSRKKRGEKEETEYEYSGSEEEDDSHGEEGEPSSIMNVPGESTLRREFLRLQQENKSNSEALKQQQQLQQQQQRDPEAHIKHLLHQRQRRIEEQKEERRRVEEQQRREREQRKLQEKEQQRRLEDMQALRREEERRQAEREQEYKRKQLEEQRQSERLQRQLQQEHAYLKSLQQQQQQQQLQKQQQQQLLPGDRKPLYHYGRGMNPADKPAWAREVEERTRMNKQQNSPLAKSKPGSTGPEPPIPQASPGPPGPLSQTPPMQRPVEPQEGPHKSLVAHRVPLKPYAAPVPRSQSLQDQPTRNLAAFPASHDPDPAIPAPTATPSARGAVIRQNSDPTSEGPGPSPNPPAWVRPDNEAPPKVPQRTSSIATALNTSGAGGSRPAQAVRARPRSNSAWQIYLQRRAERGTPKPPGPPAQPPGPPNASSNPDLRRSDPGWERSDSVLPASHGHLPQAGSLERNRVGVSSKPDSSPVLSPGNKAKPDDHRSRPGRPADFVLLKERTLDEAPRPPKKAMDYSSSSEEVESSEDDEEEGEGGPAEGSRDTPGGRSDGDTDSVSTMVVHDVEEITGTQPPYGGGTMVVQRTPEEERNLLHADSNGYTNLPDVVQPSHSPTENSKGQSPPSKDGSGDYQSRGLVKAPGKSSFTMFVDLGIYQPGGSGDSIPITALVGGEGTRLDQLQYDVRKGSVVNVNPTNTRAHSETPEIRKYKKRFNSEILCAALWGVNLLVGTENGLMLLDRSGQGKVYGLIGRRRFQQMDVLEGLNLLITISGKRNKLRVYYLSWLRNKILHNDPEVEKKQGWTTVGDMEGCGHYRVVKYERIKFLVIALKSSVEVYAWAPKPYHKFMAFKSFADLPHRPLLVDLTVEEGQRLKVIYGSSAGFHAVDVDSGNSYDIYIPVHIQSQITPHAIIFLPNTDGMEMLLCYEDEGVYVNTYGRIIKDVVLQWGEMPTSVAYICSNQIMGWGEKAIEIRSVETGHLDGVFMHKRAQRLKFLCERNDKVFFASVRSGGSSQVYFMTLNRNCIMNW
Test [7] addresses DNA-dependent protein kinase catalytic subunit (Homo sapiens) (UniProt P78527). Kind of test: Selectivity interaction (ActivX KiNativ screen (kinase selectivity in THP-1 cell lysates)) EUB0000639a PRKDC. To be noted: lysate, at 0.04 µM. It is filed as subcellular.
Test [8] concerns the target Ribosomal protein S6 kinase alpha-1 (Homo sapiens, UniProt Q15418). Kind of test: Selectivity interaction (Millipore kinase profiler) EUB0000124b RPS6KA1. Conditions: at 10 µM.
For test [9], the target named is T1, Ephrin type-A receptor 3 (Homo sapiens) (UniProt P29320).
T1 sequence (whole entry): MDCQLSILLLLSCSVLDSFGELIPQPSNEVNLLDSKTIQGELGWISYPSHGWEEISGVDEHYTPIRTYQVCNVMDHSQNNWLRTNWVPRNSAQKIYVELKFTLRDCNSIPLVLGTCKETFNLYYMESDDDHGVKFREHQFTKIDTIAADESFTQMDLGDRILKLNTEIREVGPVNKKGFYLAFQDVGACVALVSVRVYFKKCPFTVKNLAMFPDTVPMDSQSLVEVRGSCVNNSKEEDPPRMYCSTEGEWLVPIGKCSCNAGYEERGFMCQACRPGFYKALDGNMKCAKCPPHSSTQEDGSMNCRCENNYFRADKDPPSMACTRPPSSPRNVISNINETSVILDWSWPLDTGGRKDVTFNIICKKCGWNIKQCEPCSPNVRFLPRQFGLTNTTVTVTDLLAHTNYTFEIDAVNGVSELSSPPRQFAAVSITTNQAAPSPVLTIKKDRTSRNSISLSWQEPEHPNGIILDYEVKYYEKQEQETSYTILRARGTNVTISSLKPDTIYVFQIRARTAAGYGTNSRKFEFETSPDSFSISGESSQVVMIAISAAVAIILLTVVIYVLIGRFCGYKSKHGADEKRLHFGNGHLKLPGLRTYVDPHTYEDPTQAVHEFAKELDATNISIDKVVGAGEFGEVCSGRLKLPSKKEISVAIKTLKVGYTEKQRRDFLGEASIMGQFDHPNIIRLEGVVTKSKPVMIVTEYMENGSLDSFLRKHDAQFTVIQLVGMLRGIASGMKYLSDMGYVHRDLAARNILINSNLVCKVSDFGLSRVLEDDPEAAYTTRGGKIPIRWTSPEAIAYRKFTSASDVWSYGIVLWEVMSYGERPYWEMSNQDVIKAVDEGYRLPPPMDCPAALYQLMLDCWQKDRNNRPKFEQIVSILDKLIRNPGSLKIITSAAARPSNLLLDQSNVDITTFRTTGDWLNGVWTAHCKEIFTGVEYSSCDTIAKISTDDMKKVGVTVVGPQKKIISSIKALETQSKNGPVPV
Kind of test: Selectivity interaction (ProQinase) EUB0000171b EPHA3.

For test [10], the target named is T2, Serine/threonine-protein kinase TAO3 (Homo sapiens) (UniProt Q9H2K8).
T2 sequence (whole entry): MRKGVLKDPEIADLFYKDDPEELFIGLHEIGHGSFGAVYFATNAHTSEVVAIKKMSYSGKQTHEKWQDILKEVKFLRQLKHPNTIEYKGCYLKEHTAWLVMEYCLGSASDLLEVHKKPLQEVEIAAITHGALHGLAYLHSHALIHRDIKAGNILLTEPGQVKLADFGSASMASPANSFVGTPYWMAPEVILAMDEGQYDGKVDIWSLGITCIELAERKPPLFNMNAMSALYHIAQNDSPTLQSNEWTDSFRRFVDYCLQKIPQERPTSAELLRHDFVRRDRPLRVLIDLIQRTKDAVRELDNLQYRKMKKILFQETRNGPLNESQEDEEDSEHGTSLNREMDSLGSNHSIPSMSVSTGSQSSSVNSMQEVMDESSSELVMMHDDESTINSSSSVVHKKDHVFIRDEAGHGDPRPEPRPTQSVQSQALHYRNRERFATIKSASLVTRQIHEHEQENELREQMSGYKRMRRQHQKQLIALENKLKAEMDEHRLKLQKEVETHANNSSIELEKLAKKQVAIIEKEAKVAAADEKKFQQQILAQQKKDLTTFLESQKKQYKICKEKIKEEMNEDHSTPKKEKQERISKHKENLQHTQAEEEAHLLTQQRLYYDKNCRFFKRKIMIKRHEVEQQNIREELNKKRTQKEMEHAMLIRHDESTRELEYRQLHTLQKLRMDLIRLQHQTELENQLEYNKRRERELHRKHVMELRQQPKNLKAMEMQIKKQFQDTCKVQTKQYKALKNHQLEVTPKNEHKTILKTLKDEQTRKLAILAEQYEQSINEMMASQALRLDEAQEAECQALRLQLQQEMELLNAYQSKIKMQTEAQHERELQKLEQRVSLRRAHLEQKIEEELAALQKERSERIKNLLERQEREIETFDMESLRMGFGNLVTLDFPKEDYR
Kind of test: Selectivity interaction (KinomeScan (DiscoverX)) EUB0000618a TAOK3. Conditions: at 10 µM.

Chain of Serine/threonine-protein kinase 16 (O75716 whole entry): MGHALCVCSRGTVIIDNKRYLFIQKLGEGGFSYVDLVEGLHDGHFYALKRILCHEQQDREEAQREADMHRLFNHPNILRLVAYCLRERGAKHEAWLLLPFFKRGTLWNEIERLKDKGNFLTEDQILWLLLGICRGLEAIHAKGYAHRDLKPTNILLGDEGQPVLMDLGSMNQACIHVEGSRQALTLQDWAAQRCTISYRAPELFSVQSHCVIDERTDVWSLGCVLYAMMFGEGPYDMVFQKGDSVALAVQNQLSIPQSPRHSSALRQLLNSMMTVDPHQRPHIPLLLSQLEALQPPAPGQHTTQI
Chain of Ribosomal protein S6 kinase alpha-1 (Q15418 whole entry): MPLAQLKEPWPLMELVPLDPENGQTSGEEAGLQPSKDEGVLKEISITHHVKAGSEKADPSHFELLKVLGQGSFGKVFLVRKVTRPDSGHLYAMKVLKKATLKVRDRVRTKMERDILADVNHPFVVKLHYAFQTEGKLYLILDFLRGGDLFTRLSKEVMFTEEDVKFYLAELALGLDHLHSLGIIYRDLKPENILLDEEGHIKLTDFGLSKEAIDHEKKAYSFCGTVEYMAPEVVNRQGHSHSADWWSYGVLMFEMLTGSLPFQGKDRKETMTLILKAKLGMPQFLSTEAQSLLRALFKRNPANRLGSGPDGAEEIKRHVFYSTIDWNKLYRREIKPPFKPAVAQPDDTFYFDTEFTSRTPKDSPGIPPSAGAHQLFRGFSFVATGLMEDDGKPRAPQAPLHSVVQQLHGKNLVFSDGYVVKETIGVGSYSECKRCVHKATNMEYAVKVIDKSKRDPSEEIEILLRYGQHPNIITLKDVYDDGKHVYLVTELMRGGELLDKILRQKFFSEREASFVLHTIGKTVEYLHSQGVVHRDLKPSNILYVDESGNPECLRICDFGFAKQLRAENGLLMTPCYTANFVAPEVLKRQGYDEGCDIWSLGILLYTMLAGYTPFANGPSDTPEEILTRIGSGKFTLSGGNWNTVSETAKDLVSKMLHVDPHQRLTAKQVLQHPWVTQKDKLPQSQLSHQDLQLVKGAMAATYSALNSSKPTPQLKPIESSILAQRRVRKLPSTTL

`CN(C)CCOc1ccc(-c2nc(-c3ccncc3)c(-c3ccc4c(c3)CC/C4=N\O)[nH]2)cc1` gave a % of control in test [1] of 6.9%.
Consider `CCC(=O)N1CC[C@H](Nc2ncnc3c2CN(c2cnc(OC)c(C(F)(F)F)c2)CC3)C1` [LENIOLISIB], for which, in test [2], the IC50 was greater than 10 µM.
Turning to `CC[C@@H]1[C@H](F)C(=O)N[C@@H]1COc1nccc2cc(C(N)=O)c(OC)cc12` [ZIMLOVISERTIB], the % of inhibition in test [3] is 9.3%; in test [4], 21.2%; in test [5] it was -3.5%; in test [6] (at 0.01 µM), -5.5%; in [6] (at 0.04 µM), -1.7%; in [6] (at 0.2 µM), -13.9%. Besides, the figures for the % of inhibition in test [6] (at 1 µM), in test [6] (at 5 µM) and in [7] were -2.7%, 3.1% and -0.6%, respectively.
In the case of `CC(=O)Nc1cccc(-n2c(=O)n(C3CC3)c(=O)c3c(Nc4ccc(I)cc4F)n(C)c(=O)c(C)c32)c1`, the % of control in [8] is 116%.
For `C=CC(=O)Nc1cccc(C(=O)Nc2ccc(Nc3cc(-c4[nH]c(SC)nc4C)ccn3)cc2)c1`, the % of control came to 98% in test [9] (at 1 µM) and 89% in test [9] (at 5 µM).
The molecule `O[C@H]1CC[C@H](Nc2ncc3nc(Nc4c(F)cc(F)cc4F)n([C@H]4CCOC4)c3n2)CC1` came in with a % of control in test [10] of 81%.

For orientation: IC50 means the midpoint of a concentration-inhibition curve. Read a high IC50 as weaker potency.
